# Patent publication US12162867B2, “Inhibitors of RNA helicase DHX9 and uses thereof” (ACCENT THERAPEUTICS, INC., priority 2022, dated 2024)
# Read-outs that look alike come from different tables or passages of the source.
# Legend:
# Assay type in all cases: cell-based
# [1] = system: LS411N cells; assay: DHX9 cellular proliferation assay (CellTiter-Glo), LS411N (CRC-MSI); details: Homo sapiens, LS-411N, LS411N, performed at Pharmaron, read-out: LS411N (CRC-MSI-H) Antiproliferative IC50
# [2] = system: NCI-H747 cells; assay: DHX9 cellular proliferation assay (CellTiter-Glo), NCI-H747 (CRC-MSS); details: Homo sapiens, performed at Pharmaron, read-out: H747 (CRC-MSS) Antiproliferative IC50
# [3] = system: circBRIP1 in HCT116 cells; assay: DHX9 circBRIP1 cellular target engagement TaqMan Multiplex assay (qPCR); details: Homo sapiens, read-out: DHX9 Cellular Target Engagement EC50
# [4] = HCT-116, circBRIP1, HCT116 cells, * Taqman assay was used
# [5] = HCT-116, 72 h, circBRIP1, HCT116 cells, 72 hours, Taqman assay (marked *)
SMILES,IC50 [1] [nM],"IC50 ([2]; NCI-H747, NCI-H747) [nM]","EC50 [3, 4] [nM]","EC50 ([3]; HCT-116, circBRIP1, HCT116 cells, cell carries no mark, SyBr or Taqman not indicated) [nM]",IC50 ([1]; CRC-MSI-H) [nM],"IC50 ([2]; NCI-H747, NCI-H747, CRC-MSS) [nM]","EC50 [3, 5] [nM]"
Cc1cc(C(=O)Nc2cc(Cl)cc(NS(C)(=O)=O)c2)cn1-c1ccc(N2CCC3(CC3)C2)cn1 [Example 522],211,> 10000,109,–,–,–,–
Cn1cc(C(=O)Nc2cc(Cl)cc(NS(C)(=O)=O)c2)cc1-c1ncc(N2CC3(C2)CC(F)(F)C3)cn1 [Example 492],209,> 10000,44.4,–,–,–,–
"Cn1cc(C(=O)Nc2cc(Cl)cc(NS(C)(=O)=O)c2)cc1-c1ncc(F)cc1F [Example 540, N-(3-chloro-5-methanesulfonamidophenyl)-5-(3,5-difluoropyridin-2-yl)-1-methyl-1H-pyrrole-3-carboxamide]",175,7910,–,74.1,–,–,–
COc1cc(N2CC(F)(F)C2)cnc1-n1cc(C(=O)Nc2cc(Cl)cc(NS(C)(=O)=O)c2)cc1C [Example 421],114,> 10000,19.4,–,–,–,–
CN(C)CCOc1cnc(-c2cc(C(=O)Nc3cc(Cl)cc(NS(C)(=O)=O)c3)cn2C)c(F)c1 [Example 646],32.5,> 10000,45.3,–,–,–,–
Cc1sc(C(=O)Nc2cc(Cl)cc(NS(C)(=O)=O)c2)cc1-c1ccc(OC(C)(C)C)cn1 [Example 380],–,–,–,–,54.1,3620,25.1
Cc1sc(C(=O)Nc2cc(Cl)cc(NS(C)(=O)=O)c2)cc1-c1ccc(N2CC3(C2)CC(F)(F)C3)cn1 [Example 499],65.7,> 10000,24.8,–,–,–,–
Cn1cc(C(=O)Nc2cc(Cl)cc(NS(C)(=O)=O)c2)cc1-c1ccc(N2CC(CS(C)(=O)=O)C2)cn1 [Example 695],2970,> 10000,143,–,–,–,–
Cn1cc(C(=O)Nc2cc(Cl)cc(NS(C)(=O)=O)c2)cc1-c1ncncc1OCc1cc(F)cc(F)c1 [Example 627],29.4,> 10000,37.6,–,–,–,–
COC1CN(c2ccc(-c3cc(C(=O)Nc4cc(Cl)cc(NS(C)(=O)=O)c4)cn3C)nc2)C1 [Example 465],115,> 10000,35.2,–,–,–,–
Cn1cc(C(=O)Nc2cc(Cl)cc(NS(C)(=O)=O)c2)cc1-c1ncc(N2CCC(F)(F)C2)cc1F [Example 525],144,1350,43,–,–,–,–
Cc1cc(C(=O)Nc2cc(Cl)cc(NS(C)(=O)=O)c2)cn1-c1ncc(N2CC(F)(F)C2)cc1OCC(F)(F)F [Example 708],140,6460,92.6,–,–,–,–
Cc1sc(C(=O)Nc2cc(Cl)cc(NS(C)(=O)=O)c2)cc1-c1ncc(N2CC(F)(F)C2)cc1OC(F)F [Example 536],70.4,6800,49,–,–,–,–
"COC1CCN(c2ccc(-c3cc(C(=O)Nc4cc(Cl)cc(NS(C)(=O)=O)c4)cn3C)nc2)CC1 [Example 515, N-(3-chloro-5-methanesulfonamidophenyl)-5-[5-(4-methoxypiperidin-1-yl)pyridin-2-yl]-1-methyl-1H-pyrrole-3-carboxamide]",89.3,8780,21.6,–,–,–,–
COc1cnc(-c2cc(C(=O)Nc3cc(Cl)cc(NS(C)(=O)=O)c3)sc2C)c(C)c1 [Example 361],–,–,–,–,361,6250,43.2
Cn1cc(C(=O)Nc2cc(Cl)cc(NS(C)(=O)=O)c2)cc1-c1ncc(N2CCC(F)(F)CC2)cc1F [Example 469],522,3790,83.8,–,–,–,–
CC(C)Oc1ccc(-c2csc(C(=O)Nc3cc(Cl)cc(NS(C)(=O)=O)c3)c2)nc1 [Example 459],93.7,2660,58.2,–,–,–,–
Cc1cc(C(=O)Nc2cc(Cl)cc(NS(C)(=O)=O)c2)cn1-c1ncc(OC(C)(C)C)cn1 [Example 664],163,> 10000,71.9,–,–,–,–
Cc1sc(C(=O)Nc2cc(Cl)cc(NS(C)(=O)=O)c2)cc1-c1ncc(N2CC(F)(F)C2)cc1OCC(F)(F)F [Example 707],68.5,5360,25.4,–,–,–,–

SMILES,IC50 [1] [nM],"IC50 ([2]; NCI-H747, NCI-H747) [nM]","EC50 [3, 4] [nM]","EC50 ([3]; HCT-116, circBRIP1, HCT116 cells, cell carries no mark, SyBr or Taqman not indicated) [nM]",IC50 ([1]; CRC-MSI-H) [nM],"IC50 ([2]; NCI-H747, NCI-H747, CRC-MSS) [nM]","EC50 [3, 5] [nM]"
"Cc1sc(C(=O)Nc2cc(Cl)cc(NS(C)(=O)=O)c2)cc1-c1ncccc1OC(C)c1cc(F)cc(F)c1 (single isomer, unassigned) [Example 633]",10.4,6460,46,–,–,–,–
"Cc1sc(C(=O)Nc2cc(Cl)cc(NS(C)(=O)=O)c2)cc1-c1ncc(N2CC(F)(F)C2)cc1F [Example 532, N-(3-chloro-5-methanesulfonamidophenyl)-4-[5-(3,3-difluoroazetidin-1-yl)-3-fluoropyridin-2-yl]-5-methylthiophene-2-carboxamide]",100,4200,30.1,–,–,–,–
COc1cc(C(F)(F)F)cnc1-c1cc(C(=O)Nc2cc(Cl)cc(NS(C)(=O)=O)c2)sc1C [Example 550],352,3640,105,–,–,–,–
Cn1cc(C(=O)Nc2cc(Cl)cc(NS(C)(=O)=O)c2)cc1-c1ncc(N2CC(F)(F)C2)cc1OCc1cnco1 [Example 733],206,> 10000,88.3,–,–,–,–
CCS(=O)(=O)Nc1cc(Cl)cc(NC(=O)c2cc(C)n(-c3ncc(N4CC(F)(F)C4)cn3)c2)c1 [Example 423],269,8030,51.2,–,–,–,–
Cc1sc(C(=O)Nc2cc(Cl)cc(NS(C)(=O)=O)c2)cc1-c1ncc(N2CCC(F)(F)C2)cc1F [Example 484],66.2,2600,31.8,–,–,–,–
Cc1sc(C(=O)Nc2cc(Cl)cc(NS(C)(=O)=O)c2)cc1-c1ncc(C#N)cn1 [Example 585],208,> 10000,65.1,–,–,–,–
CCS(=O)(=O)Nc1cc(Cl)cc(NC(=O)c2cc(-c3ncc(F)cc3OCc3cncnc3)c(C)s2)c1 [Example 623],72.3,> 10000,11.2,–,–,–,–
CCS(=O)(=O)Nc1cc(Cl)cc(NC(=O)c2cc(-c3ncc(OC(C)C)cn3)c(C)s2)c1 [Example 565],58.2,3010,56.5,–,–,–,–
Cn1cc(C(=O)Nc2cc(Cl)cc(NS(C)(=O)=O)c2)cc1-c1ncc(OC(C)(C)C)cn1 [Example 556],74.9,4520,54.5,–,–,–,–
Cn1cc(C(=O)Nc2cc(Cl)cc(NS(C)(=O)=O)c2)cc1-c1ncc(OC(F)F)cn1 [Example 553],211,> 10000,71.6,–,–,–,–
Cn1cc(C(=O)Nc2cc(Cl)cc(NS(C)(=O)=O)c2)cc1-c1ncc(N2CC(F)(F)C2)cn1 [Example 597],164,> 10000,64.8,–,–,–,–
"Cc1sc(C(=O)Nc2cc(Cl)cc(NS(C)(=O)=O)c2)cc1-c1ccc(N2CCN(C(=O)C3CC3)CC2)cn1 [Example 590, N-(3-chloro-5-methanesulfonamidophenyl)-4-[5-(4-cyclopropanecarbonylpiperazin-1-yl)pyridin-2-yl]-5-methylthiophene-2-carboxamide]",533,> 10000,33.7,–,–,–,–
Cc1sc(C(=O)Nc2cc(Cl)cc(NS(C)(=O)=O)c2)cc1-c1ncc(OC2CCC2)cn1 [Example 452],223,> 10000,65.3,–,–,–,–
Cc1sc(C(=O)Nc2cc(Cl)cc(NS(=O)(=O)CCO)c2)cc1-c1ncccc1OCc1cncc(F)c1 [Example 626],137,> 10000,24.1,–,–,–,–
Cn1cc(C(=O)Nc2cc(Cl)cc(NS(C)(=O)=O)c2)cc1-c1ccc(OC(C)(C)C)cn1 [Example 555],121,4470,46.6,–,–,–,–
Cn1cc(C(=O)Nc2cc(Cl)cc(NS(C)(=O)=O)c2)cc1-c1ncc(N2CCC(F)(F)C2)cn1 [Example 526],133,> 10000,29.3,–,–,–,–
Cc1cc(C(=O)Nc2cc(Cl)cc(NS(C)(=O)=O)c2)cn1-c1ncc(N2CC3(C2)CC(F)(F)C3)cn1 [Example 413],138,2170,42.1,–,–,–,–
